# Source: the supplement of paper PMC6045584
# ± gives the standard deviation of the averaged measurements.
# Compound: CS(=O)(=O)c1ccc(C(=O)Nc2ccc(Cl)c(-c3ccccn3)c2)c(Cl)c1 [VISMODEGIB]
# Assay: surviving fraction relative to DMSO-only wells; higher = less growth inhibition
# Conditions: 500 nM; exposure time: 5 days
# Procedure, shortened: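 At 250–500 cells per well in 384-well plates, log-phase tumour cell lines were seeded and, 24 hours on, exposed continuously for five days to inhibitors at 0.5, 1, 5, 10, 50, 100, 500 and 1000 nM. Viability readout was CellTiter-Glo luminescence, reported as surviving fraction normalised to the median of DMSO-only wells.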
row,Test System,surviving fraction
1,SCC36 HEADNECK,0.731 ± 0.071
2,OS25HAL BONE,1.01 ± 0.048
3,HCC1806 BREAST,0.896 ± 0.11
4,HU09 BONE,0.802 ± 0.036
5,SG43 HEADNECK,1.17 ± 0.3
6,U2OS BONE,1.05 ± 0.028
7,HOSMNG BONE,1.02 ± 0.23
8,CASKI CERVIX,0.876 ± 0.075
9,SUM44 BREAST,0.924 ± 0.14
10,MDAMB231 BREAST,0.85 ± 0.025
11,CAL51 BREAST,0.9558 ± 0.009
12,MDAMB436 BREAST,0.751 ± 0.013
13,HSSYII SYNOVIAL,0.795 ± 0.026
14,RDES SOFT TISSUE,0.761 ± 0.18
15,MDAMB157 BREAST,1.01 ± 0.049
16,CHLA90 AUTONOMIC GANGLIA,0.92 ± 0.028
17,CADOES1 SOFT TISSUE,0.979 ± 0.056
18,SG31 HEADNECK,0.834 ± 0.049
19,SCC47 HEADNECK,0.9167 ± 0.004
20,S68 BREAST,0.805 ± 0.12

row,Test System,surviving fraction
1,SNU475 LIVER,0.869 ± 0.024
2,22RV1 PROSTATE,1.04 ± 0.022
3,SG32 HEADNECK,0.844 ± 0.14
4,SCC003 HEADNECK,0.852 ± 0.08
5,JURKAT HAEMATOPOIETIC AND LYMPHOID TISSUE,1.02 ± 0.032
6,HT1080 SOFT TISSUE,0.962 ± 0.024
7,CAL120 BREAST,0.942 ± 0.013
8,MCF7 BREAST,0.913 ± 0.041
9,MFM223 BREAST,0.901 ± 0.068
10,LNCAP PROSTATE,1.13 ± 0.13
11,PCI30 HEADNECK,0.844 ± 0.077
12,OSHN BONE,0.963 ± 0.031
13,SG28 HEADNECK,0.837 ± 0.076
14,HOS BONE,1.01 ± 0.029
15,HUO3N1 BONE,0.994 ± 0.03
16,BT20 BREAST,0.898 ± 0.032
17,SJSA1 BONE,1.02 ± 0.093
18,JIMT1 BREAST,0.881 ± 0.053
19,HCC78 LUNG,1.04 ± 0.13
20,NY BONE,0.932 ± 0.058

row,Test System,surviving fraction
1,NOS1 BONE,0.819 ± 0.022
2,SUM149.B1*.S BREAST,0.9072 ± 0.0081
3,93VU HEADNECK,0.849 ± 0.061
4,LM7 BONE,0.849 ± 0.067
5,143B BONE,1.01 ± 0.046
6,SUM159 BREAST,1.12 ± 0.2
7,SUM149 BREAST,0.945 ± 0.088
8,MDAMB361 BREAST,0.583 ± 0.049
9,SAOS2 BONE,0.85 ± 0.036
10,ASKA SYNOVIAL,0.926 ± 0.048
11,HCC1395 BREAST,0.676 ± 0.052
12,HCC1954 BREAST,0.618 ± 0.01
13,CME SYNOVIAL,1.03 ± 0.17
14,VCAP PROSTATE,0.914 ± 0.066
15,YAMATO SYNOVIAL,0.805 ± 0.066
16,HCC202 BREAST,0.908 ± 0.14
17,HELA CERVIX,1.04 ± 0.058
18,SG27 HEADNECK,0.9 ± 0.052
19,CAL72 BONE,0.922 ± 0.033

# Same assay, conditions: 1000 nM; exposure time: 5 days
row,Test System,surviving fraction
1,SCC36 HEADNECK,0.721 ± 0.076
2,OS25HAL BONE,1.02 ± 0.054
3,HCC1806 BREAST,0.904 ± 0.12
4,HU09 BONE,0.886 ± 0.08
5,SG43 HEADNECK,1.18 ± 0.14
6,U2OS BONE,1.07 ± 0.024
7,HOSMNG BONE,1.05 ± 0.16
8,CASKI CERVIX,0.898 ± 0.084
9,SUM44 BREAST,0.876 ± 0.055
10,MDAMB231 BREAST,0.8868 ± 0.0044
11,CAL51 BREAST,0.963 ± 0.01
12,MDAMB436 BREAST,0.78 ± 0.045
13,HSSYII SYNOVIAL,0.771 ± 0.014
14,RDES SOFT TISSUE,0.717 ± 0.32
15,MDAMB157 BREAST,0.977 ± 0.061
16,CHLA90 AUTONOMIC GANGLIA,0.953 ± 0.041
17,CADOES1 SOFT TISSUE,0.964 ± 0.073
18,SG31 HEADNECK,0.826 ± 0.091
19,SCC47 HEADNECK,0.954 ± 0.016
20,S68 BREAST,0.621 ± 0.058

row,Test System,surviving fraction
1,SNU475 LIVER,0.902 ± 0.012
2,22RV1 PROSTATE,1.09 ± 0.068
3,SG32 HEADNECK,0.873 ± 0.075
4,SCC003 HEADNECK,0.98 ± 0.056
5,JURKAT HAEMATOPOIETIC AND LYMPHOID TISSUE,1.05 ± 0.017
6,HT1080 SOFT TISSUE,0.994 ± 0.06
7,CAL120 BREAST,0.989 ± 0.016
8,MCF7 BREAST,0.904 ± 0.037
9,MFM223 BREAST,0.853 ± 0.063
10,LNCAP PROSTATE,1.08 ± 0.12
11,PCI30 HEADNECK,0.876 ± 0.043
12,OSHN BONE,0.989 ± 0.025
13,SG28 HEADNECK,0.929 ± 0.099
14,HOS BONE,1.01 ± 0.079
15,HUO3N1 BONE,0.901 ± 0.059
16,BT20 BREAST,0.907 ± 0.11
17,SJSA1 BONE,0.985 ± 0.05
18,JIMT1 BREAST,0.952 ± 0.057
19,HCC78 LUNG,0.934 ± 0.19
20,NY BONE,1.01 ± 0.041

row,Test System,surviving fraction
1,NOS1 BONE,0.832 ± 0.04
2,SUM149.B1*.S BREAST,0.913 ± 0.054
3,93VU HEADNECK,0.915 ± 0.04
4,LM7 BONE,0.86 ± 0.085
5,143B BONE,1.01 ± 0.057
6,SUM159 BREAST,1.11 ± 0.14
7,SUM149 BREAST,0.895 ± 0.077
8,MDAMB361 BREAST,0.598 ± 0.032
9,SAOS2 BONE,0.916 ± 0.055
10,ASKA SYNOVIAL,0.951 ± 0.055
11,HCC1395 BREAST,0.772 ± 0.076
12,HCC1954 BREAST,0.546 ± 0.025
13,CME SYNOVIAL,0.9627 ± 0.0064
14,VCAP PROSTATE,0.981 ± 0.1
15,YAMATO SYNOVIAL,0.82 ± 0.12
16,HCC202 BREAST,0.732 ± 0.14
17,HELA CERVIX,1.15 ± 0.019
18,SG27 HEADNECK,1.03 ± 0.13
19,CAL72 BONE,0.938 ± 0.037
